Counter-ions that a name gives are not always drawn.
What was measured:
μ-Opioid receptor [1] = biological target: T1, μ-Opioid receptor (Homo sapiens, UniProt P35372); assay: μ-Opioid receptor binding (species not given)
Target sequence in this assay (P35372 whole entry, species assumed): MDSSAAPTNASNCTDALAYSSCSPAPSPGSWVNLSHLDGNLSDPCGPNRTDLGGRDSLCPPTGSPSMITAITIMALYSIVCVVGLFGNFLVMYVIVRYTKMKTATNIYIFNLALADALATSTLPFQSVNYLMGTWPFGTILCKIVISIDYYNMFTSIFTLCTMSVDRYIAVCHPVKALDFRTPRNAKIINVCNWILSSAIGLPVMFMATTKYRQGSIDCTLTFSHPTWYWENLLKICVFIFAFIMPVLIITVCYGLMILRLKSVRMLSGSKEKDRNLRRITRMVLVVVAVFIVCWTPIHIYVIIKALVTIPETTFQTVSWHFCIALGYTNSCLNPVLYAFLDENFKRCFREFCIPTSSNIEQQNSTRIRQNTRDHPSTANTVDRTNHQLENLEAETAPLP

duration of immobility = assay: Tail suspension test on mice; format: in vivo
Text: Rodents left hanging by the tail rapidly become immobile. Antidepressants reduce the duration of the immobility, while tranquilizers prolong the duration of the immobility. […] Several mice were investigated in parallel and the duration of immobility determined. […] 10-20 mice were investigated per group. […] In this behavioural model, antidepressants, as also in other behavioural models, lead to a shortening of the immobility phase, while opioids such as morphine prolong the immobility phase.

NA uptake = NA uptake (Homo sapiens, UniProt P23975); assay: biochemical; settings: read-out: NA uptake inhibition Ki values
Sequence of NA uptake (P23975 whole entry): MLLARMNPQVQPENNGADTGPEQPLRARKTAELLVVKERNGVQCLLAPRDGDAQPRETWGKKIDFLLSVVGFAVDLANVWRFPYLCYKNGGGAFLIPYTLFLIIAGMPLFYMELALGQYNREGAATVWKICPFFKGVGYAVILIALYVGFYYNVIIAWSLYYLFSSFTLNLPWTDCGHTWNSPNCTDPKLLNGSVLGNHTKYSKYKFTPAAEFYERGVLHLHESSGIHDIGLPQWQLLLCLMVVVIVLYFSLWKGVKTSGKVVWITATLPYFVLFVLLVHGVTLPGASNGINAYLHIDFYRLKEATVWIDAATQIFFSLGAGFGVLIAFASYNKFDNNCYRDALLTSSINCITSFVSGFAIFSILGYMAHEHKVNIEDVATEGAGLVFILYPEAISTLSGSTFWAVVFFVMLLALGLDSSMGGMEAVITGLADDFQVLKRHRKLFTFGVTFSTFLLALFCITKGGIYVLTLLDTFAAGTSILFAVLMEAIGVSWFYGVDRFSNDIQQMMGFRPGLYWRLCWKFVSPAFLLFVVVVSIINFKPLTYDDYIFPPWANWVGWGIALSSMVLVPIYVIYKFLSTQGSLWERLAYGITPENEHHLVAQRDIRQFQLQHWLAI

5HT uptake = 5HT uptake (Homo sapiens, UniProt P31645); assay: biochemical; settings: read-out: 5HT uptake inhibition Ki values
Sequence of 5HT uptake (P31645 whole entry): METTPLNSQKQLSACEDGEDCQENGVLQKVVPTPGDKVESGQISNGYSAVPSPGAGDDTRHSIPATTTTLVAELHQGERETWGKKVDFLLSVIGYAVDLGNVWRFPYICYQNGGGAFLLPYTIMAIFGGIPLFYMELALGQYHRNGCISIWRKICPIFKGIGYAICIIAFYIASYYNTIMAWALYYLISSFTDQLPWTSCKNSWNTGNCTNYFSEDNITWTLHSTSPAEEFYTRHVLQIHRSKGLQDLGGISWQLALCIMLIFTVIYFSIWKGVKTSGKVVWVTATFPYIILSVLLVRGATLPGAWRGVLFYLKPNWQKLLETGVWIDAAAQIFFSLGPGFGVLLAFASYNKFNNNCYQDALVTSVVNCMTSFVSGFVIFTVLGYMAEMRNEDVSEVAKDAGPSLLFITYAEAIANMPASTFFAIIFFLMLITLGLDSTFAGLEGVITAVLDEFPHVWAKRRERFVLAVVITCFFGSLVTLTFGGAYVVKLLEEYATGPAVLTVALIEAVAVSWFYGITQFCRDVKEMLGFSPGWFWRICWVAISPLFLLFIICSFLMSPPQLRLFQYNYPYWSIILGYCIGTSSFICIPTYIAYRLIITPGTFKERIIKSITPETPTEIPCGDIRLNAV

μ-Opioid receptor [2] = biological target: μ-Opioid receptor (Rattus norvegicus, UniProt P33535); assay: μ-Opioid receptor binding (rat)
Sequence of μ-Opioid receptor (Rattus norvegicus, UniProt P33535) (P33535 whole entry): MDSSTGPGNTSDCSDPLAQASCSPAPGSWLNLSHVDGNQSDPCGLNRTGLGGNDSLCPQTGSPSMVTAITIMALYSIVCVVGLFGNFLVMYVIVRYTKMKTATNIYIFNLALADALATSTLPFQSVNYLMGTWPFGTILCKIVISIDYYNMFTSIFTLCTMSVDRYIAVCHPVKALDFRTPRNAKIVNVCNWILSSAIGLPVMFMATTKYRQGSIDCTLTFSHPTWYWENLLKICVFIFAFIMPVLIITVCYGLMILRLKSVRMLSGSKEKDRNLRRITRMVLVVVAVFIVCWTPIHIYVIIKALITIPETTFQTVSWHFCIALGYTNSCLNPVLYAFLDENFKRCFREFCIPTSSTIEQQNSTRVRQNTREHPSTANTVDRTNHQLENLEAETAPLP

μ-Opioid receptor [3] = biological target: T1, μ-Opioid receptor; assay: μ-Opioid receptor binding (human)
Target sequence in this assay (P35372 whole entry): as the sequence (P35372 whole entry, species assumed) above

[4] = 4.64 mg/kg i.p., 30 minutes before the test

Compound: CNCCC(Oc1ccc(C(F)(F)F)cc1)c1ccccc1 (stereo not shown) [Fluoxetine, fluoxetine]
- μ-Opioid receptor Ki values (μ-Opioid receptor [1]): inactive

Compound: CN(C)CCCN1c2ccccc2CCc2ccccc21 [Imipramine, imipramine]
- Duration of immobility % change compared with the solvent control (duration of immobility; 31.6 mg/kg i.p., 30 minutes before the test): −61%

Compound: CN1CC[C@]23c4c5ccc(O)c4O[C@H]2[C@@H](O)C=C[C@H]3[C@H]1C5 [Morphine, morphine]
- Duration of immobility % change compared with the solvent control (duration of immobility; [4]): +90%
- Duration of immobility % change compared with the solvent control (duration of immobility; 10.0 mg/kg i.p., 30 minutes before the test): +145%
- Duration of immobility % change compared with the solvent control (duration of immobility; 21.5 mg/kg i.p., 30 minutes before the test): +169%

Compound: CN(C)C[C@@H]1CCCC[C@H]1c1cccc(O)c1.Cl [(1R,2R)-3-(2-dimethylaminomethyl-cyclohexyl)-phenol; hydrochloride]
- Duration of immobility % change compared with the solvent control (duration of immobility; [4]): +6%
- Duration of immobility (in words) (duration of immobility; after pretreatment with naloxone): marked decrease in the duration of immobility
- Duration of immobility compared with the solvent control (in words) (duration of immobility; without naloxone pretreatment): only a slight change in the duration of immobility
- Ki (NA uptake): 0.16 µM
- Ki (5HT uptake): 0.05 µM
- Ki (μ-Opioid receptor [2]): 0.038 µM

Compound: C=CCN1CC[C@]23c4c5ccc(O)c4O[C@H]2C(=O)CC[C@@]3(O)[C@H]1C5 [Naloxone, naloxone]
- Duration of immobility % change compared with the solvent control (duration of immobility; 1.0 mg/kg i.v.): −15%

Compound: CNC[C@@H]1CCCC[C@H]1c1cccc(O)c1 [(1R,2R)-3-(2-methylaminomethyl-cyclohexyl)-phenol, hydrochloride]
- Ki (NA uptake): 0.56 µM
- Ki (5HT uptake): 9.41 µM
- Ki (μ-Opioid receptor [3]): 0.91 µM

Compound: CNCCCN1c2ccccc2CCc2ccccc21 [Desipramine, desipramine]
- μ-Opioid receptor Ki values (μ-Opioid receptor [1]): inactive
